Earlier results as cited in patent US20050232866A1, “Biochemically-activated contrast agents for magnetic resonance imaging” (Alerion Biomedical Inc., priority 2004, published 2005).

How the values were obtained:
[1] = Gd(III) chelate
[2] = physiological pH

stability constant (formation constant) logK [1] | dissociation kinetics [2] | SMILES
28.5 | very slow dissociation kinetics | O=C([O-])CN1CCN(CC(=O)[O-])CCN(CC(=O)O)CCN(CC(=O)[O-])CC1.[Gd+3] [Gd-DOTA]
22.4 | – | O=C([O-])CN(CCN(CC(=O)[O-])CC(=O)O)CCN(CC(=O)[O-])CC(=O)O.[Gd+3] [Gd(DTPA)]
